Experimental findings from paper PMC10505172, “Discovery and pharmacophoric characterization of chemokine network inhibitors using phage-display, saturation mutagenesis and computational modelling” (Nature Communications, 2023) are described below.

Experiment [1] deals with 25 biotinylated chemokines. As to the kind of experiment: Phage-display library selection with deep sequencing. In kind it is binding, human. Conditions: multivalent p8 phage display, three selection rounds, 25 chemokine baits, enrichment vs input library. The protocol:
Phage display screening was performed using a protocol as described[71] with certain modifications. Experiments were performed in 96-well plates (Greiner Bio-One, 655180). Briefly, biotinylated chemokines (1 μg, Almac or ProteinFoundry, Supplementary Table 1) were immobilised on 5 μl streptavidin-coated magnetic beads (Dynabeads™ M-280 Streptavidin, Invitrogen, 11205D) and incubated overnight at 4 °C. […]
Inserts from the input library and from the final phage population following selection were amplified by PCR using primers: 5′- […] and 5′-[…], (Life Technologies). The PCR products were cleaned up using Monarch® PCR & DNA Cleanup Kit (5 μg) (T1030, NEB), 260/280 ratio determined by Nanodrop, quantified using a Qubit dsDNA Quantitation, High Sensitivity Kit (Q32851, Thermo Scientific) and subsequently sequenced at Azenta/GeneWiz using the AmpliconEZ protocol.
Paired end read Fastq files were joined by the read id. […] Hexadecapeptide enrichment (E) following selection was calculated as ratio of output peptide frequency to input peptide frequency and expressed as log2E. […]

The target of a further experiment is T1, CCL8 (Homo sapiens, UniProt P80075).
T1 construct: purchased Peprotech 300-15
T1 sequence (P80075 24-99): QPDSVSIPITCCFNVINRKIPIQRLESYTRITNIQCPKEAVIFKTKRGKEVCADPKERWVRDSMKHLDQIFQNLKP
As to the kind of experiment: CCL8-induced THP1 cell migration (chemotaxis). In kind it is cell-based. Conditions: peptides 10 μM, chemokine at EC80, THP1 cells, n = 3 biological replicates, Dunnett's test. The protocol: For THP1 migration assays, 300000 cells/well were added to the top chamber of a 5-µm 96-well Transwell insert (3387, Corning) in 50 µL of cell migration media (RPMI-1640 (R0883, Sigma), 0.5% FBS (F9665, Sigma), 4 mM L-Glutamine (G7513, Sigma), 0.05% DMSO (D4540, Sigma)). The bottom chamber contained 150 µL of migration media with chemokine and peptide added. Cells were migrated at 37 °C in 5% CO2 for 4 h.
Following the migration assay the migration plate was shaken at 850 RPM for 10 min, and media from bottom plate transferred to a round-bottomed 96 well plate (353910, Falcon). Cell counts were determined using an Atune NxT Flow Cytometer Plate Reader with Cytkick autosampler (ThermoFisher), based on cell size parameters FSC-H/SSC-H, and a previously defined gate setting for each cell type (Supplementary Fig. 11). All experiments were performed as three technical and three biological replicates. Statistical significances between control and experimental groups was evaluated using Dunnett’s test[73]. IC50 experiments were performed at the EC80 dose of chemokine. EC80 was calculated by fitting a chemokine dose-response curve with a 3-parameter log-logistic model (fixing the top to 100%) using the function “drm” in R-package drc[74]. IC50 was calculated by fitting an inhibitor response curve with a 4-parameter log-logistic model using the function “drm” in R-package drc[74]. All IC50 values reported had p-value < 0.05.

As to “EEEDDYTAYAPLTCYF [HD7, hexadecapeptide from evasin EVA4_RHISA]”, the “number of chemokines bound with log2E > 5” value in experiment [1] is reported as “over 15”. On to “EDEDYEDFFKPVTCYF [HD845, hexadecapeptide from evasin EV672_RHIPC, previously described as BK1.5]”, for which the “effect on chemokine-induced cell migration compared with scrambled control HD2SCR” value on CCL8 is on record as “inhibition”.

For “DEDYEDFFKPVTCYFA [HD540, hexadecapeptide from evasin EV672_RHIPC]”, at CCL8, the “effect on chemokine-induced cell migration compared with scrambled control HD2SCR” value is “inhibition”.
